# Columns and labels:
# [1] = biological target: Melanocortin receptor 4 (Homo sapiens, UniProt P32245); assay: Binding affinity in competition with [125I]NDP-MSH on recombinant melanocortin 4 receptor
# [2] = biological target: Melanocortin receptor 3 (Homo sapiens, UniProt P41968); assay: Binding affinity in competition with [125I]NDP-MSH on recombinant melanocortin 3 receptor
# [3] = biological target: T1, Melanocyte-stimulating hormone receptor (Homo sapiens, UniProt Q01726); assay: Tested for its binding affinity in competition with [125I]NDP-MSH on recombinant human Melanocortin 1 receptor; nb = no binding
# T1 sequence (Q01726 whole entry): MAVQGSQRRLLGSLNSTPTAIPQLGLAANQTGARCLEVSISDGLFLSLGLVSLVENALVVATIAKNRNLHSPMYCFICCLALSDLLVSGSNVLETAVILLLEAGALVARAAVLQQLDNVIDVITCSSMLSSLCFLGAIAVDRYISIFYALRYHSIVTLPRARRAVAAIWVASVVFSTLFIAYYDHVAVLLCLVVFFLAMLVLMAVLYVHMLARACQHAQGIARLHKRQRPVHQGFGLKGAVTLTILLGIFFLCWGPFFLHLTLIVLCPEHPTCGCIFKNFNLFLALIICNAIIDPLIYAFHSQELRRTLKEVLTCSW
# [4] = biological target: T2, Melanocortin receptor 5 (Homo sapiens, UniProt P33032); assay: Binding affinity in competition with [125I]NDP-MSH on recombinant melanocortin 5 receptor
# T2 sequence (P33032 whole entry): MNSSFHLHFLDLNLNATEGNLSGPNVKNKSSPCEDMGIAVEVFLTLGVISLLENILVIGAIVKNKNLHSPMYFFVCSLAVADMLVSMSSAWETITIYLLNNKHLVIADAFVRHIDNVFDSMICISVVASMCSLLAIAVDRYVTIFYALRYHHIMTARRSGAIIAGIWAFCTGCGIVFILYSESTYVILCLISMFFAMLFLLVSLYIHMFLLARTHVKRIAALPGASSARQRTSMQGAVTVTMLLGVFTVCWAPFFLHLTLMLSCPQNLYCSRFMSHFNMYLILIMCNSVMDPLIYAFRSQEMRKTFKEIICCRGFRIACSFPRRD
# [5] = biological target: T1, Melanocyte-stimulating hormone receptor; assay: Binding affinity in competition with [125I]NDP-MSH on recombinant melanocortin 1 receptor
# [6] = biological target: T2, Melanocortin receptor 5; assay: Tested for its binding affinity in competition with [125I]NDP-MSH on recombinant Melanocortin 5 receptor; nb = no binding
# Chain of Melanocortin receptor 3 (P41968 whole entry): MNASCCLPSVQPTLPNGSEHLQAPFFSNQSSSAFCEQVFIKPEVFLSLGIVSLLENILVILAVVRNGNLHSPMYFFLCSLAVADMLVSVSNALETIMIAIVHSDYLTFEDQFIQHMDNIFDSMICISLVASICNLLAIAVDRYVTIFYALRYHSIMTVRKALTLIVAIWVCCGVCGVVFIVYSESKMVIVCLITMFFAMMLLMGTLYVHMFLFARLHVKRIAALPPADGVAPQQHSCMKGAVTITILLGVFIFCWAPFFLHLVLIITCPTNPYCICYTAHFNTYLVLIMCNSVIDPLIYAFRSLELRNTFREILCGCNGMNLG
# Chain of Melanocortin receptor 4 (P32245 whole entry): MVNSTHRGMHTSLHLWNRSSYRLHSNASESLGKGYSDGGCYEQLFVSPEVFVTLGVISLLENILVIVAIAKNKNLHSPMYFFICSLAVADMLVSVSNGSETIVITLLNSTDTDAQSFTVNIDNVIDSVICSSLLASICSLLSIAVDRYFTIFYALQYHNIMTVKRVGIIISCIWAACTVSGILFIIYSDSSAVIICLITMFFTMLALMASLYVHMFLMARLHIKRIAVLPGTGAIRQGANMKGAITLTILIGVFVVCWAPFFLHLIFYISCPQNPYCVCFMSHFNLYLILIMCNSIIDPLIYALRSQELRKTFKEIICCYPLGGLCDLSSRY
Ki [1] [µM],Ki [2] [µM],Ki [4] [µM],Ki [5] [µM],Structure (SMILES),Ki [3],Ki [6]
150,161,50,,O=C(NCCc1c[nH]cn1)[C@@H]1C[C@H](O)CN1Cc1ccc2ccccc2c1,Not Active,
6.8,6.4,8.7,1.3,N=C(N)NCCC[C@H](NCc1ccc2ccccc2c1)C(=O)Nc1cccc2ccccc12,,
> 1,> 1,> 1,> 1,COc1ccc(CN[C@@H](CCCN=C(N)N)C(N)=O)cc1OC,,
15,28,15,5.9,C=CCOC(=O)[C@H](CCCNC(=N)N)NCc1ccc2ccccc2c1,,
205,> 1000,184,> 1000,N=C(N)NCCC[C@H](NCc1c[nH]c2ccccc12)C(=O)N[C@@H](Cc1c[nH]c2ccccc12)C(N)=O,,
64,53,37,15,NC(=O)[C@@H](Cc1c[nH]c2ccccc12)NCc1ccc2ccccc2c1,,
134,155,130,> 1000,N=C(N)NCCC[C@H](NCC1CCc2ccccc2C1)C(N)=O (some centres undefined),,
105,107,74,29,N=C(N)NCCC[C@H](NCc1ccc2ccccc2c1)C(=O)N[C@@H](Cc1c[nH]c2ccccc12)C(N)=O,,
> 1,> 1,> 1,> 1,N=C(N)NCCC[C@@H](NCc1c[nH]c2ccccc12)C(N)=O,,
> 1,> 1,> 1,> 1,NC(N)=NCCC[C@@H](NCc1c[nH]c2ccccc12)C(=O)O,,
> 1,> 1,> 1,> 1,COc1ccc(CN[C@@H](CCCNC(=N)N)C(N)=O)c(Cl)c1OC,,
> 1,> 1,> 1,> 1,N=C(N)NCCC[C@H](NCc1c[nH]c2ccccc12)C(N)=O,,
14,14,6.6,2.9,N=C(N)NCCC[C@H](NCc1ccc2ccccc2c1)C(=O)Nc1ccc2ccccc2c1,,
30,4.8,,4.5,N=C(N)NCCCNC(=O)[C@H](CCCN=C(N)N)NCc1ccc2ccccc2c1,,Not Active
279,82,221,2.9,NC(N)=NCCCNC(=O)[C@@H]1C[C@H](O)CN1Cc1ccc2ccccc2c1,,
> 1,> 1,> 1,> 1,NC(N)=NCCCC(NCc1c[nH]c2ccccc12)C(=O)O (centres undefined),,
139,56,42,8.7,NC(=O)[C@H](Cc1c[nH]c2ccccc12)NCc1ccc2ccccc2c1,,
56,147,56,32,N=C(N)NCCC[C@@H](NCc1ccc2ccccc2c1)C(=O)N[C@@H](Cc1c[nH]c2ccccc12)C(N)=O,,
> 1,> 1,> 1,> 1,COc1ccc(CNC(CCCN=C(N)N)C(=O)O)cc1OC (centres undefined),,
> 1,> 1,> 1,> 1,N=C(N)NCCC[C@H](NCc1ccc2ccccc2c1)C(N)=O,,
> 1000,> 1000,95,74,NC(=O)[C@@H](Cc1ccc2ccccc2c1)NCc1c[nH]c2ccccc12,,
> 1000,> 1000,125,> 1000,N=C(N)NCCC[C@@H](NCc1ccc2ccccc2c1)C(N)=O,,
> 1000,> 1000,60,26,NC(=O)[C@H](Cc1ccc2ccccc2c1)NCc1c[nH]c2ccccc12,,
> 1,> 1,> 1,> 1,COc1ccc(CN[C@H](CCCNC(=N)N)C(=O)O)cc1OC,,
> 1,> 1,> 1,> 1,COc1ccc(CN[C@H](CCCNC(=N)N)C(=O)O)c(Cl)c1OC,,

Structure (SMILES),Ki [1] [µM],Ki [2] [µM],Ki [4] [µM],Ki [5] [µM],Ki [3],Ki [6]
O=C(NCc1ccc2ccccc2c1)[C@H]1CCCN1CCc1c[nH]c2ccccc12,166,752,,,Not Active,Not Active

# Source: ChEMBL document CHEMBL1135876, “N-alkylaminoacids and their derivatives interact with melanocortin receptors” (Bioorg Med Chem Lett, 2002)
